Patent US10683559B2, “G-protein coupled receptor (GPCR)-based biosensors and uses thereof” (Georgia Tech Research Corporation, priority 2014, dated 2020)
Values belong to the compound of their own block, whether it stands above or below them.

Legend:
OR1G1 = target: T1, OR1G1 (Homo sapiens, UniProt P47890); assay: OR1G1-based yeast sensor, GFP fluorescence by flow cytometry; type: cell-based; conditions: for detection by the OR1G1-sensor, acid added independently: 250 μM, each acid alone (FIG. 27); for detection by the OR1G1-sensor in a mixture of fatty acids: mixture of C10, C14 and C16 acids (FIG. 27)
T1 construct: expressed in transfected cells; host or cells: S. cerevisiae W303 Δfar1, Δsst2, Δste2 (PPY140) or additionally Δste12 (PPY161), plasmid pESC-His3-PTEF1-OR1G1 (pKM269 and derivatives)
T1 sequence (P47890 with tags, fused parts or gaps limits assumed): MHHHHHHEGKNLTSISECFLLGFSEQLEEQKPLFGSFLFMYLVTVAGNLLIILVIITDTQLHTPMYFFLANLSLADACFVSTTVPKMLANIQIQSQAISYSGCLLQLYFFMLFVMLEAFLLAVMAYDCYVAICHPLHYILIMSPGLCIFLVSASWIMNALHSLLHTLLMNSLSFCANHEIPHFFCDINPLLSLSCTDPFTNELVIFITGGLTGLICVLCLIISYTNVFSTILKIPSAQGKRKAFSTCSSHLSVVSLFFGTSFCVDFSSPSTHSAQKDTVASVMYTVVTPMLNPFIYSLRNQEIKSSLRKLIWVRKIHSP
Description: (§1) The GPCRs tested were the olfactory receptor OR1G1 (Sanz, G., Schlegel, C., Pernollet, J. C., and Briand, L. (2005) Comparison of odorant specificity of two human olfactory receptors from different phylogenetic classes and evidence for antagonism, Chemical Senses 30, 69-80) and the free fatty acid receptor GPR40 (Itoh, Y., et al. (2003) Free fatty acids regulate insulin secretion from pancreatic beta cells through GPR40, Nature 422, 173-176). First, OR1G1 and GPR40 sensing of even, medium-chain saturated fatty acids (C8-C16) using PFIG1-GFP(m) was tested. A reliable signal after fatty acid addition was not observed (FIGS. 23 and 24). Hypothesizing that the large standard deviation of PFIG1-GFP(m) contributed to the inability to detect medium-chain fatty acids, PFIG1-GFP(s) was tested as the reporter plasmid. Using PFIG1-GFP(s) enabled the OR1G1 based-sensor to detect C8, C10 and C12 fatty acids with 13-, 17-, and 13-fold increases in signal after activation, respectively (FIGS. 8-9). Using PFIG1-GFP(s) also enabled the GPR40 based-sensor to detect C8, C10 and C12 saturated fatty acids, with 14-, 25-, and 16-fold increases in signal after activation, respectively (FIGS. 10-11). It was also explored whether the OR1G1-based sensor signal could be improved by expressing the OR1G1 from a single-copy (s) rather than a multi-copy (m) plasmid.
(§2) To engineer a system in which medium-chain fatty acid sensing would trigger only GFP transcription, Ste12 was replaced in the yeast strain carrying deletions of Ste2, Sst2, and Far1 with one of two synthetic transcription factors (STFs): 1) STF1, which is composed of the Ste12 phosphorylation domain and the Gal4 activation and DNA binding domains (Pi, H. W., Chien, C. T., and Fields, S. (1997) Transcriptional activation upon pheromone stimulation mediated by a small domain of Saccharomyces cerevisiae Ste12p, Mol Cell Biol 17, 6410-6418) and 2) STF2, which is composed of the Ste12 phosphorylation domain, the synthetic B42 activation domain and the bacterial LexA DNA binding domain (Golemis, E. A., and Brent, R. (1992) Fused Protein Domains Inhibit DNA-Binding by Lexa, Mol Cell Biol 12, 3006-3014 and Peralta-Yahya, P., Carter, B. T., Lin, H. N., Tao, H. Y., and Comish, V. W. (2008) High-Throughput Selection for Cellulase Catalysts Using Chemical Complementation, J Am Chem Soc 130, 17446-17452). STF1 can activate transcription of GFP placed under control of a synthetic minimal promoter carrying five Gal4 DNA binding sites (PGal4(5×)). STF2 activates transcription of GFP placed under control of a synthetic minimal promoter carrying four lexA DNA binding sites (PLexA(4×)) (FIGS. 17 and 18).
(§3) For the Ste2/α-factor sensor, strains PPY638, PPY639, PPY640, PPY641 were grown overnight in synthetic complete media with 2% glucose and lacking leucine (SD glu (L^−)). The next day, the cells were used to inoculate a 20 mL of SD glu (L^−) to an OD600=0.06 and incubated for 18 hrs at 30° C. (150 r.p.m.). The cells were centrifuged, re-suspended in 5 mL SD glu (L^−), used to innoculate 5 ml of fresh SD glu (L^−) to OD600=0.6. α-factor (0-100 nM, Zymo Y1001) was added to the medium and incubated for 4 hrs at 30° C. (150 r.p.m.) before reading for cell fluorescence using a flow cytometer. For the OR1G1- and GPR40-based sensors using Ste12/PFIG1-GFP response unit, strains PPY643, PPY644 were grown overnight in SD glu and lacking histidine and leucine (SD glu (HL^−)). The next day, the cells were used to inoculate a 20 mL of SD glu (HL^−) to an OD600=0.06 and incubated for 18 hrs at […] (150 r.p.m.). The cells were centrifuged, re-suspended in 2 ml SD glu (HL^−) to OD600=0.6. C8, C10, C12, C14 and C16 saturated fatty acids (0-800 μM) were added to the medium and incubated for 4 hrs at 30° C. (150 r.p.m.) before reading for cell fluorescence using a flow cytometer. […]

GPR40 = target: T2, GPR40 (Homo sapiens, UniProt O14842); assay: GPR40-based yeast sensor, GFP fluorescence by flow cytometry; type: cell-based
T2 construct: expressed in transfected cells; host or cells: S. cerevisiae W303 Δfar1, Δsst2, Δste2 (PPY140) or additionally Δste12 (PPY161), plasmid pESC-His3-PTEF1-GPR40 (pKM469 and derivatives)
Description: as §1, §2, §3

[1] = C8, C10, C12 fatty aldehydes and alcohols, C10 methyl- and ethyl-esters, dose response
[2] = Ste12/PFIG1-GFP(s), maximum at C8 800 μM, C10 250 μM, C12 500 μM
[3] = W303 Δfar1, Δsst2, Δste2, reporter PFig1-GFP(s), TF Ste12
[4] = Ste12/PFIG1-GFP(s), maximum at C8 800 μM, C10 800 μM, C12 250 μM
[5] = 0 or 500 μM decanoic acid, PFig1-GFP(s), compared with no GPCR
[6] = STF1/PGal4(5×)-GFP response unit, 800 μM decanoic acid
[7] = W303 Δfar1, Δsst2, Δste2, Δste12, 500 μM decanoic acid, PFig1-GFP(s)
[8] = W303 Δfar1, Δsst2, Δste2, Δste12, reporter PGal4(5x)-GFP(m), TF STF1
[9] = W303 Δfar1, Δsst2, Δste2, Δste12, reporter PLexA(4x)-GFP(m), TF STF2

T2 sequence (O14842 whole entry): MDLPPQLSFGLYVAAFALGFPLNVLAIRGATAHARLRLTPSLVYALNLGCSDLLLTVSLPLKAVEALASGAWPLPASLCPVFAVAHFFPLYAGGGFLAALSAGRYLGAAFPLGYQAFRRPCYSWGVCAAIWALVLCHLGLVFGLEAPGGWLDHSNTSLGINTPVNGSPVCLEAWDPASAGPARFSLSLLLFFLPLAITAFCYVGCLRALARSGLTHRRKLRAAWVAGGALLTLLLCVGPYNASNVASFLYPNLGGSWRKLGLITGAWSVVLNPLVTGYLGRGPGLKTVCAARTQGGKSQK

increase in signal after activation (specificity) (OR1G1; [1]): > 3 fold
increase in signal after activation (GPR40; at 125 μM): 3 fold
SMILES: CCCCCCCCCC=O [C10 aldehyde]

detection by the OR1G1-sensor, acid added independently (OR1G1): able to detect
detection by the OR1G1-sensor in a mixture of fatty acids (OR1G1): not able to detect
SMILES: CCCCCCCCCCCCCCCC(=O)O [C16 acid]

detection by the OR1G1-sensor, acid added independently (OR1G1): able to detect
detection by the OR1G1-sensor in a mixture of fatty acids (OR1G1): not able to detect
SMILES: CCCCCCCCCCCCCC(=O)O [C14 acid]

GFP fluorescence in presence of GPCR (OR1G1; [5]): increase in GFP fluorescence
detection by the OR1G1-sensor, acid added independently (OR1G1): able to detect
linear range reaching to (OR1G1; STF1/PGal4(5×)-GFP response unit): 500 µM
improvement in signal after activation over the Ste12/PFIG1-GFP(s) response unit (OR1G1; [6]): ~200%
increase in signal after activation (OR1G1; [6]): 30 fold
increase in signal after activation (OR1G1; STF2/PLexA(4×)-GFP response unit, 800 μM decanoic acid): 7 fold
linear range plateaued at (OR1G1; Ste12/PFIG1-GFP(s) response unit): 250 µM
increase in signal after activation (OR1G1; [2]): 17 fold
Dynamic range (OR1G1; [8]): 30
GFP max (OR1G1; [8]): 1126 AU
Linear range (OR1G1; [8]): 110 to 500 µM
Dynamic range (OR1G1; [9]): 7
GFP max (OR1G1; [9]): 405 AU
Linear range (OR1G1; [9]): 2 to 100 µM
Dynamic range (OR1G1; [3]): 17
GFP max (OR1G1; [3]): 308 AU
Linear range (OR1G1; [3]): 34 to 250 µM
detection by the OR1G1-sensor in a mixture of fatty acids (OR1G1): not able to detect
detection by the OR1G1-sensor in a mixture of fatty acids (OR1G1; listed as decanoic acid): inability
GFP fluorescence in presence of GPCR (GPR40; [5]): increase in GFP fluorescence
increase in signal after activation (GPR40; STF1/PGal4(5×)-GFP response unit, 500 μM decanoic acid): 28 fold
increase in GFP expression (GPR40; STF2/PLexA(4×) response unit, 500 μM C10 acid (FIG. 22)): 4 fold
increase in signal after activation (GPR40; [4]): 25 fold
Dynamic range (GPR40; [8]): 28
GFP max (GPR40; [8]): 573 AU
Linear range (GPR40; [8]): 47 to 250 µM
Dynamic range (GPR40; [9]): 4
GFP max (GPR40; [9]): 501 AU
Linear range (GPR40; [9]): 4 to 100 µM
Dynamic range (GPR40; [3]): 25
GFP max (GPR40; [3]): 339 AU
Linear range (GPR40; [3]): 36 to 100 µM
flow cytometry histogram of the biosensor strain (GPR40; incubated with compound vs no compound (FIGS. 30A-30E)): shift of the population
SMILES: CCCCCCCCCC(=O)O [C10 acid, decanoic acid]
GFP fluorescence in the absence of Ste12 (OR1G1; [7]): no observable increase in GFP fluorescence
increase in signal after activation with chromosomal GPA1 compared with Golf and GPA1-Golf (OR1G1; above 250 μM decanoic acid): greatest increase in signal after activation
GFP fluorescence in the absence of Ste12 (GPR40; [7]): no observable increase in GFP fluorescence

The next lines start with the compound.

SMILES: CCCCCCCC=O [C8 aldehyde]
increase in signal after activation (specificity) (GPR40; [1]): unable to detect

SMILES: CCCCCCCC(=O)O [C8 acid]
increase in signal after activation (OR1G1; [2]): 13 fold
Dynamic range (OR1G1; [3]): 13
GFP max (OR1G1; [3]): 239 AU
Linear range (OR1G1; [3]): 19 to 250 µM
increase in signal after activation (GPR40; [4]): 14 fold
Dynamic range (GPR40; [3]): 14
GFP max (GPR40; [3]): 197 AU
Linear range (GPR40; [3]): 36 to 250 µM

SMILES: CCCCCCCCCCCC(=O)O [C12 acid]
increase in signal after activation (OR1G1; [2]): 13 fold
Dynamic range (OR1G1; [3]): 13
GFP max (OR1G1; [3]): 233 AU
Linear range (OR1G1; [3]): 1 to 250 µM
increase in signal after activation (GPR40; [4]): 16 fold
Dynamic range (GPR40; [3]): 16
GFP max (GPR40; [3]): 222 AU
Linear range (GPR40; [3]): 2 to 250 µM

SMILES: CCCCCCCCCCCC=O [C12 aldehyde]
increase in signal after activation (GPR40; at 250 μM): 3 fold
